Measurements as given in patent publication US20260083865A1, “PROSTATE SPECIFIC MEMBRANE ANTIGEN (PSMA) LIGANDS AND USE THEREOF” (priority 2022, published 2026).
Where two headings read alike, the source gives them in different places. Numbered stars: 1 amine (or outer) side, 2 acyl side, 3 side chain; on linkers, the order of the positions; unused ones are H or OH. Bridge positions count the residues as written; N and C are the ends. Square brackets hold non-standard residues; d marks the D form. Side chains are listed from the residue outwards. Peptide text beside a SMILES is read from it. * marks the point of attachment. TtdsdLys(DOTA)NH2 = NC(=O)[C@@H](CCCCNC(=O)CN1CCN(CC(=O)O)CCN(CC(=O)O)CCN(CC(=O)O)CC1)NC(=O)CCC(=O)NCCCOCCOCCOCCCN*; DOTA = O=C(O)CN1CCN(CC(=O)O)CCN(CC(=O)*)CCN(CC(=O)O)CC1; Phe(4-SO3H) = N[C@@H](Cc1ccc(S(=O)(=O)O)cc1)C(=O)O; Arg(Me) = CNC(=N)NCCC[C@H](N)C(=O)O; hPhe = N[C@@H](CCc1ccccc1)C(=O)O; 3Pal = N[C@@H](Cc1cccnc1)C(=O)O; X1 = O=C(CC1CCN([*:1])CC1)[*:2]; Lys(Me) = CNCCCC[C@H](N)C(=O)O; Tle = CC(C)(C)[C@H](N)C(=O)O; 4Amb = NCc1ccc(C(=O)O)cc1; Nle = CCCC[C@H](N)C(=O)O; Aib = CC(C)(N)C(=O)O; CO = O=C([*:1])[*:2]; NHBu = CCCCN*

Key:
[1] = biological target: T1, Fc-fusion protein of human PSMA (hPSMA-Fc) (Homo sapiens, UniProt Q04609); assay: Surface plasmon resonance assay (Biacore T200, single cycle kinetic); type: binding; conditions: hPSMA-Fc, 25° C., read-out: pKD CAT (converted)
T1 construct: purchased Acro Biosystems PSA-H5264
In short: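 hPSMA-Fc was captured (~1000 RU) on an Fc-binding-peptide CM5 chip, and compounds were run in single cycle kinetic mode at 25° C in HBST with 0.1% DMSO. Double-blank-corrected sensorgrams were fitted to a 1:1 Langmuir model to give KD, reported as pKD.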

[2] = biological target: T2, PSMA-expressing C4-2 cells (Homo sapiens, UniProt Q04609); assay: FACS binding assay (competition with 50 nM PSM-0183); conditions: read-out: pIC50 [C4-2] CAT (converted)
T2 construct: PSMA-expressing C4-2 cells (ATCC, Cat. No. CRL-3314) were cultured in RPMI-1640; host or cells: C4-2 cells
In short: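 C4-2 cells were incubated 1 h at 4 °C with 50 nM AF488-labelled peptide PSM-0183 plus increasing test compound concentrations, then washed twice in ice-cold buffer. Median fluorescence in the AF488 channel was read by flow cytometry. IC50/pIC50 was derived by 4PL fitting of MFI versus concentration.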

[3] = pKD category for PSMA SPR activity assay
[4] = pIC50 category of FACS binding, C4-2 cells
[5] = FACS binding, PSMA-expressing C4-2 cells, pIC50 category

T1 sequence (Q04609 44-750 limits assumed): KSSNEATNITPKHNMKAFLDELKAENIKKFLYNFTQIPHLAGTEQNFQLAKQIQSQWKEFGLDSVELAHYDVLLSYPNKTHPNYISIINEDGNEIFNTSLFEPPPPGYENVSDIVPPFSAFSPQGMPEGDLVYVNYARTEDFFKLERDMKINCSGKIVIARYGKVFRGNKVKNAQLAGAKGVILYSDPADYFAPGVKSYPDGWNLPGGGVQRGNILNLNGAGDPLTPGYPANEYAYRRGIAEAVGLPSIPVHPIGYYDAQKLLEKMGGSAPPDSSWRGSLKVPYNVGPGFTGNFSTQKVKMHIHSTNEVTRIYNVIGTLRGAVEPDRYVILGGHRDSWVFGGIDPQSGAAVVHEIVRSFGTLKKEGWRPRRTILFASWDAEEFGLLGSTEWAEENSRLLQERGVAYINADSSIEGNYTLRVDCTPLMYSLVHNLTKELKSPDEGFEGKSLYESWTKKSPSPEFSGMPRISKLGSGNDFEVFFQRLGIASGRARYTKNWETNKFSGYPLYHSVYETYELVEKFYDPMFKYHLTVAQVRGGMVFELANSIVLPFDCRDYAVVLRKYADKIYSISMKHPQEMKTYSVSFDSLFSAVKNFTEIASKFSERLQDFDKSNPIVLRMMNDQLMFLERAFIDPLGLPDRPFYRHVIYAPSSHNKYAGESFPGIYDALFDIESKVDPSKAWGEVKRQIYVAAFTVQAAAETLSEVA
T2 sequence (Q04609 whole entry): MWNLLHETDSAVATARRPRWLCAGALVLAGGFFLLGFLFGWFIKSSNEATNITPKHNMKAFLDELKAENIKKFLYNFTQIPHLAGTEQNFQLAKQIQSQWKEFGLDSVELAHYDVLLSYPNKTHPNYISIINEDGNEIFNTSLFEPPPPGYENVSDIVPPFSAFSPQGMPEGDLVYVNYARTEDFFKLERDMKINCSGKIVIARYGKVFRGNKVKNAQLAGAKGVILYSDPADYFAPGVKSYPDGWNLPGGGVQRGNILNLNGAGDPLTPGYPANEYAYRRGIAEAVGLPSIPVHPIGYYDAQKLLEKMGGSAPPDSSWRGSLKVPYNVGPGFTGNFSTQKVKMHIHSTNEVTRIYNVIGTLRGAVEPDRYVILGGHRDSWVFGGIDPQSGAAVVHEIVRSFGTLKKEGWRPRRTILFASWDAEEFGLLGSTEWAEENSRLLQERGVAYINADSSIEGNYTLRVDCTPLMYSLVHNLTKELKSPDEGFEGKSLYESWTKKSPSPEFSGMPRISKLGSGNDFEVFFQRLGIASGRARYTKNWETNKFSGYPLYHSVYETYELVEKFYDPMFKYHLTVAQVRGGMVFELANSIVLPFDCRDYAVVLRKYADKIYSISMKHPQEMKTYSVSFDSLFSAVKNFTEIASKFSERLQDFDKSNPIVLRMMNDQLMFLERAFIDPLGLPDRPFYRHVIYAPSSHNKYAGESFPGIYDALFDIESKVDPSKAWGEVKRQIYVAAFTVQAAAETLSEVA

Row | SMILES | Kd [1, 3] [nM] | IC50 [2, 4] [nM] | Kd ([1]; PSMA SPR assay, pKD category) [nM] | IC50 [2, 5] [nM]
1 | CC(=O)N[C@H](C(=O)NC(C)(C)C(=O)N[C@@H](Cc1ccccc1)C(=O)N[C@H]1CSSC[C@@H](C(=O)N[C@H](C(=O)N[C@H](C(N)=O)[C@@H](C)O)C(C)(C)C)NC(=O)[C@H](CC(N)=O)NC(=O)[C@H](CCCCNC(=O)c2ccc(CNC(=O)CN3CCN(CC(=O)O)CCN(CC(=O)O)CCN(CC(=O)O)CC3)cc2)NC(=O)[C@H](CCCNC(=N)N)NC(=O)[C@H](CCCCN)NC1=O)[C@@H](C)O [PSM-0419, Ac-Thr-Aib-Phe-[Cys-Lys-Arg-Lys(DOTA-Pamb)-Asn-Cys]-Tle-Thr-NH2] (Ac-T[Aib]FCKRK([4Amb-DOTA])NC[Tle]T-NH2; disulfide 4-9) | < 12.6 | < 200 |  | 
2 | CCCCNC(=O)N[C@H](C(=O)NC(C)(C)C(=O)N[C@@H](Cc1ccccc1)C(=O)N[C@H]1CSSC[C@@H](C(=O)N[C@H](C(=O)N[C@H](C(=O)N2CCC(CC(=O)N[C@H](CCCCNC(=O)CN3CCN(CC(=O)O)CCN(CC(=O)O)CCN(CC(=O)O)CC3)C(N)=O)CC2)[C@@H](C)O)C(C)(C)C)NC(=O)[C@H](CC(N)=O)NC(=O)C(C)(C)NC(=O)[C@H](CCCNC(=N)N)NC(=O)[C@H](CCCCN)NC1=O)[C@@H](C)O [PSM-0484, nBuCAyl-Thr-Aib-Phe-[Cys-Lys-Arg-Aib-Asn-Cys]-Tle-Thr-Cmp-lys(DOTA)-NH2] ({NHBu-CO}-T[Aib]FCKR[Aib]NC[Tle]T[X1][dK](DOTA)-NH2; disulfide 4-9) | < 12.6 | < 200 |  | 
3 | CC(C)(NC(=O)c1ccc(CNC(=O)CN2CCN(CC(=O)O)CCN(CC(=O)O)CCN(CC(=O)O)CC2)cc1)C(=O)N[C@@H](Cc1ccccc1)C(=O)N[C@H]1CSSC[C@@H](C(=O)N[C@H](C(N)=O)C(C)(C)C)NC(=O)[C@H](CC(N)=O)NC(=O)C(C)(C)NC(=O)[C@H](CCCNC(=N)N)NC(=O)[C@H](CCCCN)NC1=O [PSM-0458, DOTA-Pamb-Aib-Phe-[Cys-Lys-Arg-Aib-Asn-Cys]-Tle-NH2] ({DOTA-4Amb}-[Aib]FCKR[Aib]NC[Tle]-NH2; disulfide 3-8) | 12.6 to 126 | < 200 |  | 
4 | CC(=O)N[C@H](C(=O)NC(C)(C)C(=O)N[C@@H](Cc1ccccc1)C(=O)N[C@H]1CSSC[C@@H](C(=O)N[C@H](C(=O)N[C@H](C(N)=O)[C@@H](C)O)C(C)(C)C)NC(=O)[C@@H](CC(N)=O)NC(=O)C(C)(C)NC(=O)[C@H](CCCNC(=N)N)NC(=O)[C@H](CCCCN)NC1=O)[C@@H](C)O [PSM-0402, Ac-Thr-Aib-Phe-[Cys-Lys-Arg-Aib-asn-Cys]-Tle-Thr-NH2] (Ac-T[Aib]FCKR[Aib][dN]C[Tle]T-NH2; disulfide 4-9) | < 12.6 | < 200 |  | 
5 | CC(=O)N[C@@H](C)C(=O)N[C@@H](Cc1ccccc1)C(=O)N[C@H]1CSSC[C@@H](C(=O)N[C@@H](CC(C)C)C(=O)N[C@H](C(=O)N[C@@H](CC(=O)O)C(=O)NCCCOCCOCCOCCCNC(=O)CCC(=O)N[C@H](CCCCNC(=O)CN2CCN(CC(=O)O)CCN(CC(=O)O)CCN(CC(=O)O)CC2)C(N)=O)[C@@H](C)O)NC(=O)[C@H](CC(N)=O)NC(=O)[C@H](C)NC(=O)[C@H](CCCNC(=N)N)NC(=O)[C@H](CCCCN)NC1=O [PSM-0299, Ac-Ala-Phe-[Cys-Lys-Arg-Ala-Asn-Cys]-Leu-Thr-Asp-Ttds-lys(DOTA)-NH2] (Ac-AFCKRANCLTD-{TtdsdLys(DOTA)NH2}; disulfide 3-8) |  |  | 12.6 to 126 | 1260 to 3160
6 | CCCC[C@H](NC(=O)[C@@H]1CSSC[C@H](NC(=O)[C@H](Cc2ccccc2)NC(=O)[C@H](C)NC(=O)[C@H](CO)NC(C)=O)C(=O)N[C@@H](CCCCN)C(=O)N[C@@H](CCCNC(=N)N)C(=O)N[C@@H](C)C(=O)N[C@@H](CC(N)=O)C(=O)N1)C(=O)N[C@H](C(=O)N[C@@H](CC(=O)O)C(N)=O)[C@@H](C)O [PSM-0469, Ac-Ser-Ala-Phe-[Cys-Lys-Arg-Ala-Asn-Cys]-Nle-Thr-Asp-NH2] (Ac-SAFCKRANC[Nle]TD-NH2; disulfide 4-9) | 12.6 to 126 | < 200 |  | 
7 | CCCC[C@H](NC(=O)[C@@H]1CSSC[C@H](NC(=O)[C@H](Cc2ccccc2)NC(=O)[C@H](C)NC(=O)[C@@H](NC(C)=O)[C@@H](C)O)C(=O)N[C@@H](CCCCN)C(=O)N[C@@H](CCCNC(=N)N)C(=O)N[C@@H](C)C(=O)N[C@@H](CC(N)=O)C(=O)N1)C(=O)N[C@H](C(=O)N[C@@H](CC(=O)O)C(N)=O)[C@@H](C)O [PSM-0287, Ac-Thr-Ala-Phe-[Cys-Lys-Arg-Ala-Asn-Cys]-Nle-Thr-Asp-NH2] |  |  | 12.6 to 126 | < 200
8 | CC(=O)N[C@H](C(=O)NC(C)(C)C(=O)N[C@@H](CCc1ccccc1)C(=O)N[C@H]1CSSC[C@@H](C(=O)N[C@H](C(=O)N[C@H](C(N)=O)[C@@H](C)O)C(C)(C)C)NC(=O)[C@H](CC(N)=O)NC(=O)C(C)(C)NC(=O)[C@H](CCCNC(=N)N)NC(=O)[C@H](CCCCN)NC1=O)[C@@H](C)O [PSM-0411, Ac-Thr-Aib-Hfe-[Cys-Lys-Arg-Aib-Asn-Cys]-Tle-Thr-NH2] (Ac-T[Aib][hPhe]CKR[Aib]NC[Tle]T-NH2; disulfide 4-9) | < 12.6 | < 200 |  | 
9 | CC(=O)N[C@H](C(=O)NC(C)(C)C(=O)N[C@@H](Cc1ccccc1)C(=O)N[C@H]1CSSC[C@@H](C(=O)N[C@H](C(=O)N[C@H](C(=O)N[C@@H](CC(=O)O)C(N)=O)[C@@H](C)O)C(C)(C)C)NC(=O)[C@H](CC(N)=O)NC(=O)[C@H](C)NC(=O)[C@H](CCCNC(=N)N)NC(=O)[C@H](CCC(N)=O)NC1=O)[C@@H](C)O [PSM-0435, Ac-Thr-Aib-Phe-[Cys-Gln-Arg-Ala-Asn-Cys]-Tle-Thr-Asp-NH2] (Ac-T[Aib]FCQRANC[Tle]TD-NH2; disulfide 4-9) | 12.6 to 126 | < 200 |  | 
10 | CNCCCC[C@@H]1NC(=O)[C@@H](NC(=O)[C@H](Cc2cccnc2)NC(=O)C(C)(C)NC(=O)[C@@H](NC(=O)CC2CCN(C(=O)CN3CCN(CC(=O)O)CCN(CC(=O)O)CCN(CC(=O)O)CC3)CC2)[C@@H](C)O)CSSC[C@@H](C(=O)N[C@H](C(=O)N[C@H](C(N)=O)[C@@H](C)O)C(C)(C)C)NC(=O)[C@H](CC(N)=O)NC(=O)C(C)(C)NC(=O)[C@H](CCCNC(=N)NC)NC1=O [PSM-0296, DOTA-Cmp-Thr-Aib-Mpa-[Cys-Lys(Me)-Arg(Me)-Aib-Asn-Cys]-Tle-Thr-NH2] ({DOTA}-[X1]T[Aib][3Pal]C[Lys(Me)][Arg(Me)][Aib]NC[Tle]T-NH2; disulfide 5-10) |  |  | 126 to 501 | 200 to 1260
11 | CC(=O)N[C@H](C(=O)NC(C)(C)C(=O)N[C@@H](Cc1ccccc1)C(=O)N[C@H]1CSSC[C@@H](C(=O)N[C@H](C(=O)N[C@@H](CC(C)C)C(N)=O)C(C)(C)C)NC(=O)[C@H](CC(N)=O)NC(=O)C(C)(C)NC(=O)[C@H](CCCNC(=N)N)NC(=O)[C@H](CCCCN)NC1=O)[C@@H](C)O [PSM-0453, Ac-Thr-Aib-Phe-[Cys-Lys-Arg-Aib-Asn-Cys]-Tle-Leu-NH2] (Ac-T[Aib]FCKR[Aib]NC[Tle]L-NH2; disulfide 4-9) | < 12.6 | < 200 |  | 
12 | C[C@@H](O)[C@H](NC(=O)[C@@H](NC(=O)[C@@H]1CSSC[C@H](NC(=O)[C@H](Cc2ccc(S(=O)(=O)O)cc2)NC(=O)C(C)(C)NC(=O)[C@@H](NC(=O)CC2CCN(C(=O)CN3CCN(CC(=O)O)CCN(CC(=O)O)CCN(CC(=O)O)CC3)CC2)[C@@H](C)O)C(=O)N[C@@H](CCCCN)C(=O)N[C@@H](CCCNC(=N)N)C(=O)NC(C)(C)C(=O)N[C@@H](CC(N)=O)C(=O)N1)C(C)(C)C)C(N)=O [PSM-0386, DOTA-Cmp-Thr-Aib-Fso-[Cys-Lys-Arg-Aib-Asn-Cys]-Tle-Thr-NH2] ({DOTA}-[X1]T[Aib][Phe(4-SO3H)]CKR[Aib]NC[Tle]T-NH2; disulfide 5-10) | > 501 | > 3160 |  | 
